Reference: the METLIN SMRT retention time set (Domingo-Almenara et al. 2019)

assay: gradient 5% acetonitrile 3 min, to 50% in 2 min, to 85% in 15 min, held 3 min, 100 µL/min; conditions: column: Zorbax Extend-C18 2.1 x 50 mm; eluents: water / acetonitrile, 0.1% formic acid
Method in brief: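 The system's dead and dwell volumes were 40 μL and 900 μL, with a Zorbax Extend-C18 column (2.1 × 50 mm, 1.8 μm) run at 100 μL/min in water and acetonitrile containing 0.1% formic acid each. Pure standards were analyzed in mixtures of ~100 molecules by HPLC–quadrupole time-of-flight mass spectrometry in positive and negative ionization mode. Retention time was assigned from computationally picked, manually inspected adduct peaks.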

RP-LC retention time | Structure (SMILES)
965 s | O=c1ccc(-c2ccccc2)nn1CCc1nc(-c2ccccc2Br)no1
743 s | CC(=O)c1ccc(NC(=O)Cn2ccc3ccc(-c4nnc(C)o4)cc32)cc1
1210 s | O=S(=O)(Cc1cccc(Cl)c1)N1CCc2nc(-c3ccc(Cl)cc3)ncc2C1
604 s | CCCc1cc(N2CCN(C(=O)c3cccc(C#N)c3)CC2)nc2nncn12
756 s | CC(C)c1ccc(-c2c(N3CCN(c4ccccn4)CC3)c(=O)c2=O)cc1
789 s | Cc1cccc(Cn2nc(-c3nc(C)no3)ccc2=O)c1
713 s | COc1ccccc1-c1noc(C2CCCN2C(=O)c2ccc(NC(C)=O)cc2)n1 (stereo not drawn)
1060 s | COc1ccccc1-c1noc(-c2nnn(Cc3nc(-c4ccccc4OC)oc3C)c2C)n1
674 s | O=C(CSc1nc2ccccc2o1)NCCn1nc(-c2ccco2)ccc1=O
688 s | C=CCN1CC(c2nc3ccccc3n2Cc2c(F)cccc2Cl)CC1=O (stereo not drawn)
886 s | CCOC(=O)c1nc(Nc2ccc(OC)c(Cl)c2)c2ccccc2n1
760 s | Cc1ccc(Cn2c(=O)n(CCNC(=O)c3ccoc3)c3ncccc32)cc1
690 s | C[C@@H](Oc1cc(-n2cnc3ccc(CN4CCN(C)CC4)cc32)sc1C(N)=O)c1ccccc1C(F)(F)F
1200 s | CCn1c(=O)c(C)nc2cc(-c3noc(-c4ccc(C)cc4)n3)ccc21
602 s | Cc1nc2ccn(Cc3ccco3)c(=O)c2cc1C(=O)N1CCN(c2ccccn2)CC1
627 s | CN(C(=O)Cn1nc(Cc2ccncc2)c2ccccc2c1=O)c1ccccc1Cl
1000 s | O=S(=O)(c1cccc2cccnc12)N1CCc2nc(-c3ccc(F)cc3)ncc2C1
811 s | Cc1ccc(NC(=O)N2CCC(n3cnc4cc(F)ccc4c3=O)CC2)c(C)c1
1320 s | CCOc1ccccc1NC(=O)Cn1c(-c2ccccc2)nc(CC)cc1=O
1050 s | Cc1ccc2ncn(C3CCN(S(=O)(=O)c4ccc(C(C)C)cc4)CC3)c(=O)c2c1

RP-LC retention time | Structure (SMILES)
624 s | CCN(Cc1ccccc1)C(=O)Cn1cnc(C)cc1=O
854 s | Brc1cccc(-c2nnc(Cc3nc(-c4ccncc4)no3)o2)c1
684 s | O=C(c1ccsc1)N(CCc1ccccc1)Cc1ccccn1
774 s | Fc1ccc(C(c2nnc(-c3ccccc3Cl)o2)N2CCN(c3ccccn3)CC2)cc1 (stereo not drawn)
653 s | COCCCNC(=O)CCc1c(C)n(C)c2nc(-c3ccccc3)nn2c1=O
600 s | Cc1[nH]c(=O)[nH]c(=O)c1CCC(=O)N1CCC(c2nc3ccccc3o2)CC1
759 s | Cc1ccn2cc(-c3ccc(C)c(NS(=O)(=O)c4cc(C)c(C)cc4C)c3)nc2c1
907 s | Cc1ccc(C(C)NC(=O)Cn2cc(-c3noc(-c4ccc(F)cc4)n3)nc2C)cc1 (stereo not drawn)
762 s | CC1CCc2nc3ncn(CC(=O)NC(C)c4ccccc4)c(=O)c3cc2C1 (stereo not drawn)
1240 s | CCc1ccc(S(=O)(=O)N2CCC(c3noc(-c4cccc(OC)c4)n3)CC2)cc1
917 s | COc1ccc(OCc2nnc3sc(-c4cc(CC(C)C)[nH]n4)nn23)cc1
735 s | CCn1cnc2ccc(-c3noc(CCc4c[nH]c5ccccc45)n3)cc21
970 s | CC1Oc2ccc(-c3csc(NC(=O)c4ccccc4)n3)cc2N(C)C1=O (stereo not drawn)
576 s | CCCCN1CCN(C(=O)c2cc(-c3ccncc3)cn2Cc2ccccc2C)CC1
868 s | Cc1cc2nn(CC(=O)Nc3ccc(C)c(C)c3)c(=O)n2c(-c2ccccc2)n1
692 s | NS(=O)(=O)c1ccc(CCNC(=O)c2nc(CCS(=O)(=O)c3ccccc3)no2)cc1
636 s | COc1cc(-c2nc3ccc(C)cn3c2Nc2ccc3c(c2)OCCO3)ccc1O
938 s | CCc1csc(-c2ccc(N3CCN(C(=O)c4nccc5ccccc45)CC3)nc2)n1
1040 s | COc1ccc(OC)c(NC(=O)CN2C(=O)CC(c3ccc(Cl)cc3)=Nc3cccnc32)c1
1020 s | Cc1nc(-c2ccc(C(F)(F)F)cc2)ncc1C(=O)NCc1ccco1

The next lines start with the compound.

Structure (SMILES) | RP-LC retention time
CCC(=O)N1CCc2cc(N3CC(C(=O)Nc4ccc(C(C)=O)cc4)CC3=O)ccc21 (stereo not drawn) | 717 s
CC(=O)N1CCc2cc(S(=O)(=O)C(C)CC(=O)NC3CCN(Cc4ccccc4)CC3)ccc21 (stereo not drawn) | 551 s
CCOC(=O)C1=C(O)C(=O)N(Cc2ccccc2)C1 | 834 s
COc1ccc(NC(=O)C2CCCN(c3nccnc3Sc3ccccc3)C2)c(OC)c1 (stereo not drawn) | 1060 s
CC(=O)SCc1nc(SCC(=O)Nc2ccccc2C)n[nH]1 | 623 s
Cc1cccc(N2CCN(C(=O)C3CCCN(c4cc(=O)n(C)c(=O)n4C)C3)CC2)c1C (stereo not drawn) | 874 s
Cc1occc1C(=O)N1CCc2nn(CC3CC3)c(=O)n2CC1 | 646 s
CCCCC(C)C(=O)NC1CCN(C2=NS(=O)(=O)C(c3ccc(C)c(C)c3)=C2C)CC1 (stereo not drawn) | 987 s
CN1CCC(OC2CCN(C(=O)CC3CCCC3)CC2)CC1 | 596 s
Cc1cc(C(=O)Nc2ccc3c(c2)CCC(=O)N3C)no1 | 686 s
COc1cccc(C(=O)NCCN2CCN(c3ccc(Cl)cc3)CC2)c1 | 745 s
CN(CC1CCOC1)C(=O)c1ccc(F)cc1Cl (stereo not drawn) | 704 s
O=C(Nc1cccc(F)c1)N1CCC(N2CCN(Cc3ccccc3)C2=O)CC1 | 827 s
Cn1cccc1C(=O)N1CCN(c2cc(-c3ccc(Cl)cc3)[nH]n2)CC1 | 832 s
CC(C)NC(=O)c1ccc(OCC2CCN(C(=O)Cc3ccccc3F)CC2)cc1 | 870 s
CCn1nc(C)c(CCN(C)C(=O)c2cc3c(s2)N(C)CCCC3)c1C | 743 s
COCc1cc(=O)n(CC(=O)Nc2ccc(C)cc2)c(N)n1 | 595 s
Cc1c(S(=O)(=O)NCc2ccc3c(c2)CCN3C(=O)C(C)C)cnn1C(F)F | 801 s
O=C(NCC1CCCCC1)C1CCN(C(=O)c2ncn3c2COC(c2ccc(Cl)cc2)C3)CC1 (stereo not drawn) | 830 s
Cc1ccc(NC(=O)Nc2ccc(NC(=O)N3CCCC(C(=O)NC(C)C)C3)cc2)cc1 (stereo not drawn) | 760 s
Cc1ccc(Cn2nc3ccc(S(=O)(=O)N4CCSCC4)cn3c2=O)cc1C | 1000 s
CCN1CCN(C(=O)C2CCN(S(=O)(=O)c3c(C)nn(-c4ccc(F)cc4)c3C)CC2)CC1 | 641 s
O=S(=O)(c1ccc2nncn2c1)N(Cc1cc(F)cc(F)c1)c1cc(F)cc(F)c1 | 910 s
O=C(COc1ccc(Cl)cc1)NCC1(O)CCOCC1 | 623 s

Structure (SMILES) | RP-LC retention time
Cc1cc(C2CCCN2C(=O)Cc2ccc(F)cc2Cl)on1 (stereo not drawn) | 851 s
CCCn1cc(C(=O)NCc2ccccc2C)c(S(=O)(=O)N2CCC(C)CC2)n1 | 1110 s
O=C(Cc1ccc(NC(=O)CCS(=O)(=O)c2ccccc2)cc1)NCc1cccs1 | 701 s
Cc1cc(C)n(CCNC(=O)NCc2cccs2)n1 | 593 s
COc1cccc(CNC2=NCCNC23CCN(S(=O)(=O)c2ccc4c(c2)CCCC4)CC3)c1 | 822 s
CCOc1ccc(CCNC(=O)c2cc(S(=O)(=O)N3CCCC3)c(C)n2C)cc1OCC | 951 s
O=C(NC1CCN(c2ccc(N3CCCCCC3)nn2)CC1)c1ccc(F)c(F)c1 | 682 s
Cc1sc(-c2noc(C(C)C)n2)cc1S(=O)(=O)N1CCC(C(=O)NCc2cccs2)CC1 | 1030 s
CCOc1ccccc1C1NC(=O)N(CC(=O)NC2CCCCC2)C2=C1C(=O)OC2 (stereo not drawn) | 722 s
CC(C)C(=O)Nc1cccnc1 | 583 s
O=C(N1CCN(S(=O)(=O)c2cccnc2)CC1)N1C[C@H]2C[C@H](C1)[C@H]1CCCC(=O)N1C2 | 629 s
CNC(=O)C1CCCN(c2nc3ncn(CC(=O)Nc4cc(Cl)ccc4C)c(=O)c3s2)C1 (stereo not drawn) | 669 s
CCNS(=O)(=O)c1cccnc1Nc1cccc(Cl)c1 | 1030 s
CC(C)C(=O)Nc1ccc(N2CCN(c3ccccc3)C2=O)nc1 | 832 s
O=C(c1ccc2c(c1)OCO2)N1CCC(Nc2ncnc3c2CCC3)C1 (stereo not drawn) | 564 s
COc1cc(NC(=O)CSc2nccc(N3CCN(c4cccc(OC)c4)CC3)n2)cc(OC)c1 | 667 s
COCCn1ncc(N2CCCC(CC(=O)O)C2)cc1=O (stereo not drawn) | 613 s
CCN1C(=O)c2cccnc2Sc2cc(NC(=O)C(C)C)ccc21 | 711 s
CCC(C)(C)NC(=O)c1ccc2c(c1)N(C(=O)NC)CC2 | 705 s
CN(C)CCSc1ncccc1C(=O)NCc1cccs1 | 583 s
N#Cc1nc(-c2ccc(COc3ccc(Cl)cc3)o2)oc1N1CCC(C(N)=O)CC1 | 806 s
O=C(c1ccc(OCC2CCCN2C(=O)c2ccc(Cl)cc2)cc1)N1CCOCC1 (stereo not drawn) | 795 s
CCOC(=O)c1ccc2[nH]c(-c3ccc(S(=O)(=O)F)cc3)cc(=O)c2c1 | 858 s
CS(=O)(=O)N(C1CCOCC1)C1CN(C(=O)NCCc2ccccc2)C1 | 684 s
